# Measurements taken from patent US20220288102A1, “Compounds for Hepatitis B Treatment” (Agency for Science, Technology and Research, priority 2019, published 2022).
# “Also recorded” adds a separate entry of the source.
# Columns and labels:
# [1] = test system: HBsAg; experiment: HBsAg inhibition in HepG2 2.15 cells (primary screen and dose response, HBsAg ELISA); format: cell-based, Hepatitis B virus; conditions: for HBsAg inhibition, dose response curve / percentage inhibition curve (HBsAg): 8-point dose response in HepG2 2.15 cells starting from 30 μM; for IC50: Hepatitis B virus, HepG2.2.15, read-out: IC50 (HBsAg); for percentage inhibition curve (HBsAg): FIG. 4
# Experimental: HBsAg ELISA. HBsAg ELISA was carried out as described in detail below. In brief 25 μL of the cell culture supernatant was collected at the indicated timepoints on the figure legends and was used for the HBsAg ELISA.
# Procedure • 1. Coat microwells with 25 ul per well of mouse monoclonal [86C] diluted in coating buffer (6 ug per ml; 300 ul from 0.2 mg/ml stock in 10 ml of coating buffer)(150 ng/well). • 2. Seal plate and incubate overnight at 4° C. • 3. Aspirate wells and wash 3 times with 50 ul/well of wash buffer. • 4. After last wash, invert plate and blot on c-towel and spin 1000 rpm for 1 min to remove residual solution. • 5. Block plates with 75 ul/well of assay diluent. Incubate at RT for 2 hrs. • 6. Aspirate/wash as in step 3. • 7. Prepare 4000 ng/ml of active HBS Ag (Adw) full length protein in assay diluent and titrate 2 fold for 12 different decreasing concentration. Pipette 25 ul of sample and different dilutions of active HepB surface Ag (Adw) into appropriate wells. Seal plate and incubate for 2 hrs at RT. • 8. Aspirate/wash as in step 3 but with total 5 washes. • 9. Add 25 ul of working detector (Rabbit polyclonal to HBS-Biotin (4500 ng/ml)+SAv-HRP (1:1000) reagent to each well. Seal plate and incubate for 1 hr at RT. • 10. Aspirate/wash as in step 3 but for 7 washes. • 11. Add 25 ul of TMB substrate solution to each well and incubate plate for 30 minutes at RT in dark. • 12. Add 25 ul of stop solution (1N HCl) to each well, read absorbance at 450 nm within 30 minutes of stopping reaction.
# In block 205, a primary screen of the library of compounds was done in HepG2 2.15 cells to determine the inhibitory activity of HBsAg (the surface antigen of the Hepatitis B virus which indicates hepatitis B infection in patients) and parallel cytotoxicity. In block 310, the hit compounds (“HITS” or “HITs”) were determined by identifying compounds with certain criteria. […] For example, the compounds may be tested at 3 μM (data shown herein) or 10 μM.
# A secondary screen of the hit compounds was done to determine the EC50 of the hit compounds.
# [2] = Cytotoxicity in HepG2 2.15 cells; format: cell-based; conditions: human, Hep G2 2.15 cells
# Experimental: In block 205, a primary screen of the library of compounds was done in HepG2 2.15 cells to determine the inhibitory activity of HBsAg (the surface antigen of the Hepatitis B virus which indicates hepatitis B infection in patients) and parallel cytotoxicity. In block 310, the hit compounds (“HITS” or “HITs”) were determined by identifying compounds with certain criteria. […] In the preliminary screen, the compounds are typically tested at higher concentrations than expected and may lead to greater than desired cytotoxicity (>20%). For example, the compounds may be tested at 3 μM (data shown herein) or 10 μM. However, the compound was subsequently further tested in a proper dose response manner (described below) to determine whether the drug is able to elicit the antiviral response (decrease in HBsAg levels) with low cytotoxicity (i.e. <20% cytotoxicity).
# From the primary high throughput screen of 151 epigenetic modulators in the SelleckChem compound library at a 3 μM concentration, 16 hit compounds were identified to have good antiviral activity resulting in high HBsAg loss (>50%) and low cytotoxicity (<20%) and the results are shown in FIG. 3.
# A secondary screen of the hit compounds was done to determine the EC50 of the hit compounds. […] Some of the other compounds were determined to be less suitable. […] The MI-2 EC50 is very high and appers to be dependent on the toxic nature of the compound and was not a viable option. The percentage inhibition curve of MC1568, OF-1 and tofacitinib in FIG. 4 are close to 0 in the vertical axis and may not be readily seen in FIG. 4. It may be seen that the secondary screen is able to filter off unsuitable compounds from the primary screen.
# [3] = test system: extracellular HBV DNA; experiment: Extracellular HBV DNA (qPCR) in infected primary human hepatocytes; format: cell-based, Hepatitis B virus; conditions: HBVcc-infected primary human hepatocytes, compound treatment 3 μM
# Experimental: HBV extracellular DNA was extracted from 200 μL of cell culture supernatant collected at the end of the experiment as indicated on the figure legends. DNA was extracted according to the QIAamp DNA Mini Kit (Qiagen).
# (§1) FIG. 8 briefly describes an experimental model of the method to infect the cells with HBV, treatment with drugs, and subsequent analysis. The primary human hepatocytes were seeded in a 96 well plate coated with Collagen I (30 minutes at room temperature) with DMSO (1%) induction. The next day, the cells were infected with purified HBV with a multiplicity of infection (MOI) of 500 (i.e. the ratio of the infection agent (HBV) to the infection target (cell)) in media containing 4% polyethylene glycol 8000 (PEG-8000) and 1% DMSO (day 0). On the next day, the infected cells were washed vigorously to remove excess virus by washing 3 times without removing the spent media completely and treated with the test compounds at 3 μM concentration (day 1). In addition. the supernatant was collected at day 3 and the cells pulsed again with the test compounds at 3 μM concentration. At day 5, the supernatant was collected for analysis with the HBsAg ELISA and finally at day 8 cells were lysed for DNA isolation, eHBV analysis and cccDNA analysis. This allows comparison of the effects of the compounds on day 3 and day 5. Some of the cells were fixed, permeabalized and stained with antibody to HBcAg to determine HBcAg levels via IFA.
# [4] = test system: HBV in HepAD38.7 cells; experiment: Secondary validation of the drug screen in HepAD38.7 cells; format: cell-based, Hepatitis B virus
# Experimental: In block 215, a secondary screen was conducted to determine the EC50 values (the effective concentration to obtain 50% activity or inhibition) of the HIT compounds. In block 220, the hit compounds were tested in HEPAD38.7 HBV live infection models to determine the robustness of the hit compounds, i.e. whether the hit compounds are effective. In block 225, the novel lead compounds or scaffold structures are identified and mechanism of action (MOA) studies for target engagement were developed. In block 230, the lead compound is optimised and validated or if the compound is known but for a different non-biological use or biological target, the compound may be repurposed for the inhibition of HBV. In block 235, the efficacy of the compound was determined in animal models.
# A secondary validation of the drug screen in HepAD38.7 cells and a functional gene knockdown using Lipofectamine 3000 reagent was also performed. The genes selected were the annotated targets of the selected epigenetic inhibitors.
# [5] = test system: HBsAg; experiment: HBsAg ELISA in HBV-infected primary human hepatocytes; format: cell-based, Hepatitis B virus; conditions: 3 μM
# Experimental: HBV infection of PHH. Primary human hepatocytes were infected at […] in presence of 4% PEG8000 and 1% DMSO as described earlier. The samples, cell lysate for RNA and or DNA as well as cell culture supernatant were harvested at indicated timepoints on figure legends.
# Procedure • 1. […] Seal plate and incubate overnight at 4° C. • 3. […] Block plates with 75 ul/well of assay diluent. Incubate at RT for 2 hrs. • 6. Aspirate/wash as in step 3. • 7.
# as §1
# [6] = test system: primary human hepatocytes; experiment: Cytotoxicity (CCK-8) in infected primary human hepatocytes; format: cell-based; conditions: 3 μM
# [7] = test system: cccDNA; experiment: cccDNA (qPCR) in infected primary human hepatocytes; format: cell-based, Hepatitis B virus; conditions: HBVcc-infected primary human hepatocytes, compound treatment 3 μM
# Experimental: The DNA is isolated from the cellular lysate, purification with Plasmid safe ATP-dependent DNAse is performed to remove non-circular DNAs (relaxed circular DNA). cccDNA levels are then measure using a Taqman-probe based quantitative polymerase chain reaction.
# as §1, with “Some of the cells were fixed, permeabalized and stained with antibody to HBcAg to determine HBcAg levels via IFA.” left out
Structure (SMILES),"HBsAg inhibition, dose response curve [1]",IC50 [1],IC50 [2],antiviral effect in HepAD38 cells [4],further results
Cc1cc(Nc2nc(N[C@@H](C)c3ccc(F)cc3)c(C#N)cc2F)n[nH]1 [AZ960],suitable dose response curve,0.193 µM,0.231 µM,,extracellular HBV DNA levels in the cell culture supernatant [3]: reduces extracellular HBV DNA levels more than Entecavir
COc1cc(Nc2ncc3c(n2)-c2ccc(Cl)cc2C(c2c(F)cccc2OC)=NC3)ccc1C(=O)O [Alisertib],not as efficacious,,,did not show an effect,
Cc1nc(N)sc1-c1ccnc(Nc2ccc(N3CCOCC3)cc2)n1 [CYC-116],suitable dose response curve,0.42 µM,1.49 µM,significantly higher antiviral activity,HBsAg levels ([5]; Day 3 and Day 5): reduces HBsAg levels more than Entecavir; also recorded: lowest HBsAg levels; cytotoxicity level (CCK-8) [6]: higher cytotoxicity levels; extracellular HBV DNA levels in the cell culture supernatant [3]: reduces extracellular HBV DNA levels more than Entecavir; cccDNA levels in the cell lysate [7]: lowest measured cccDNA levels
C=C1[C@H](CO)[C@@H](O)C[C@@H]1n1cnc2c(=O)[nH]c(N)nc21 [Entecavir],,,,,cytotoxicity level (CCK-8) [6]: low toxicity levels
Cn1c(/C=C/C(=O)NO)ccc1/C=C/C(=O)c1cccc(F)c1 [MC-1568],,,,,percentage inhibition curve (HBsAg) [1]: ~0%
CCCc1cc2c(N3CCN(C4=NCC(C)(C)S4)CC3)ncnc2s1 [MI-2],,,,,"EC50 ([1]; secondary screen, HepG2 2.15 cells): very high"
CC(C)c1cc2c(N3CCN(C4=NCC(C)(C)S4)CC3)ncnc2s1 [MI-3],suitable dose response curve,1.12 µM,4.37 µM,,
CCCCN(Cc1ccc(C(=O)NO)cc1)C(=O)Nc1ccccc1 [Nexturastat A],suitable dose response curve,0.98 µM,3.58 µM,significantly higher antiviral activity,HBsAg levels ([5]; Day 3 and Day 5): reduces HBsAg levels more than Entecavir
COc1cc2c(cc1NS(=O)(=O)c1ccc(Br)cc1C)n(C)c(=O)n2C [OF-1],,,,,percentage inhibition curve (HBsAg) [1]: ~0%
CCS(=O)(=O)c1cccc(-c2cc(C(=O)NC3CCN(C)CC3)c(C)c3[nH]c4ncc(C)cc4c23)c1 [TAK-901],suitable dose response curve,0.4 µM,11 µM,significantly higher antiviral activity,HBsAg levels ([5]; Day 3 and Day 5): reduces HBsAg levels more than Entecavir; cytotoxicity level (CCK-8) [6]: higher cytotoxicity levels; extracellular HBV DNA levels in the cell culture supernatant [3]: reduces extracellular HBV DNA levels more than Entecavir; cccDNA levels in the cell lysate [7]: lowest measured cccDNA levels
C[C@@H]1CCN(C(=O)CC#N)C[C@@H]1N(C)c1ncnc2[nH]ccc12 [Tofacitinib],,,,,percentage inhibition curve (HBsAg) [1]: ~0%
"CN1CCc2c(c3ccccc3n2Cc2ccc(C(=O)NO)cc2)C1.Cl [Tubastatin A HCl, Tubastatin A hydrochloride salt]",suitable dose response curve,2 µM,7.21 µM,significantly higher antiviral activity,"HBsAg levels ([5]; Day 3 and Day 5, hydrochloride salt): reduces HBsAg levels more than Entecavir; also recorded: lowest HBsAg levels"
